The target of the test is EGFR (human) (UniProt P00533). The test can be described thus: Assessment of EGFR Kinase Activity.

The text below walks through data of the Kinase Knowledgebase extract (Sharma et al. 2016).

SMILES strings stand for the structures.

Sequence of EGFR (human) (P00533 whole entry, looked up): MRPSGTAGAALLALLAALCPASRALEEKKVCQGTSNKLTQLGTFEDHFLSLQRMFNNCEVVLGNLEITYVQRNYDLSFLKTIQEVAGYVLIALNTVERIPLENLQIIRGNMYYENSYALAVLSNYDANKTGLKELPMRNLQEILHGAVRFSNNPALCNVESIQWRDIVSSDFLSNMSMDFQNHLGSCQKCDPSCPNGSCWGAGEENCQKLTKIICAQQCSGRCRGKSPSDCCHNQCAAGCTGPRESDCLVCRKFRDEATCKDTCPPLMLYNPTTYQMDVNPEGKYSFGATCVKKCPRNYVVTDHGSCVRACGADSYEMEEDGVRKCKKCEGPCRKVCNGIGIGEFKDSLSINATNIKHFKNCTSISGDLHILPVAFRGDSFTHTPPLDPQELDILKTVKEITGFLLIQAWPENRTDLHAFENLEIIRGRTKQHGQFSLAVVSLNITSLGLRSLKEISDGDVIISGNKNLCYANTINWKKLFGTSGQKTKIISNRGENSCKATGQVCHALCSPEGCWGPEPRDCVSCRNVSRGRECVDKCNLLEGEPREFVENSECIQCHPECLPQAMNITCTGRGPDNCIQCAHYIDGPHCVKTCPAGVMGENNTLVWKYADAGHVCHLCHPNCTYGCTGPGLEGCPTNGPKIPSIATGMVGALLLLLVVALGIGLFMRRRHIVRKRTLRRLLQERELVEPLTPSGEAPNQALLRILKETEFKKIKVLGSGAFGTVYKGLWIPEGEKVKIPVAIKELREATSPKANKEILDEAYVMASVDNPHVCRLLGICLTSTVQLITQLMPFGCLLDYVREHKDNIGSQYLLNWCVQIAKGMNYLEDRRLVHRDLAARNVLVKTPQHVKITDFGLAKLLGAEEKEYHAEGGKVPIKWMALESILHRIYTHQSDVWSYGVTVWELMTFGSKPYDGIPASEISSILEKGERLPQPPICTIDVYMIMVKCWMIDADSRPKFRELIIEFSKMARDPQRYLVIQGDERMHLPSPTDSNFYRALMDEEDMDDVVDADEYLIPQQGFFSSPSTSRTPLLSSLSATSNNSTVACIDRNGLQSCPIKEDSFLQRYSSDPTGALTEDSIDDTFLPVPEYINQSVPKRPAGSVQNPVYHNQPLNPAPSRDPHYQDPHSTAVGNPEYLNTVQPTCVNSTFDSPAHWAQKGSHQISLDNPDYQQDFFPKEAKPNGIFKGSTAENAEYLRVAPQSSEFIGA

Consider `CP(C)(=O)CCNCC#Cc1ccc2ncnc(Nc3ccc(OCc4cccc(F)c4)c(Cl)c3)c2c1`, for which the IC50 is below 100 nM.

`CC1(C)COP(=O)(CCNCc2ccc(-c3ccc4ncnc(Nc5ccc(OCc6cccc(F)c6)c(Cl)c5)c4c3)o2)OC1` yielded an IC50 below 100 nM. In turn, `CP1(=O)CCN(Cc2ccc(-c3ccc4ncnc(Nc5ccc(Br)cc5F)c4c3)o2)CC1` registered a concentration for half-maximal inhibition (IC50) of 100 to 1000 nM. For `CP1(=O)CCN(Cc2ccc(-c3ccc4ncnc(Nc5cccc(Cl)c5F)c4c3)o2)CC1` the value was below 100 nM; for `CP1(=O)CCN(Cc2ccc(-c3ccc4ncnc(Nc5ccc6c(cnn6Cc6cccc(F)c6)c5)c4c3)o2)CC1`, below 100 nM. For `CP(C)(=O)CN1CCN(Cc2ccc(-c3ccc4ncnc(Nc5ccc(OCc6cccc(F)c6)c(Cl)c5)c4c3)o2)CC1` the value was below 100 nM.

As for `C[C@@H](Nc1ncnc2ccc(-c3ccc(CN4CCP(C)(=O)CC4)o3)cc12)c1ccccc1`, the IC50 was below 100 nM. Compound `CP(C)(=O)CNCc1ccc(-c2ccc3ncnc(Nc4ccc(OCc5cccc(F)c5)c(Cl)c4)c3c2)o1` had an IC50 below 100 nM.

Compound `CCN(CCP(C)(C)=O)Cc1ccc(-c2ccc3ncnc(Nc4ccc5c(cnn5Cc5cccc(F)c5)c4)c3c2)o1` had an IC50 below 100 nM. As for `CP1(=O)CCN(Cc2ccc(-c3ccc4ncnc(Nc5ccc(OCc6cnccn6)c(Cl)c5)c4c3)o2)CC1`, the IC50 was below 100 nM. `CP1(=O)CCN(Cc2ccc(-c3ccc4ncnc(Nc5ccc(Br)c(Cl)c5F)c4c3)o2)CC1` came in with an IC50 below 100 nM. For `CP1(=O)CCN(CC#Cc2ccc3ncnc(Nc4ccc(OCc5cccc(F)c5)c(Cl)c4)c3c2)CC1` the value was below 100 nM; for `CP(C)(=O)CCN(CCO)Cc1ccc(-c2ccc3ncnc(Nc4ccc5c(cnn5Cc5cccc(F)c5)c4)c3c2)o1`, below 100 nM. `COP(=O)(CCNCc1ccc(-c2ccc3ncnc(Nc4ccc(OCc5cccc(F)c5)c(Cl)c4)c3c2)o1)OC` yielded an IC50 below 100 nM.

`Cc1cccc(COc2ccc(Nc3ncnc4ccc(-c5ccc(CN6CCP(C)(=O)CC6)o5)cc34)cc2Cl)n1` came in with a concentration for half-maximal inhibition (IC50) of 100 to 1000 nM. For `CP1(=O)CCN(CC#Cc2ccc3ncnc(Nc4ccc5c(cnn5Cc5cccc(F)c5)c4)c3c2)CC1` the value was below 100 nM; for `C#Cc1cc(Nc2ncnc3ccc(-c4ccc(CN5CCP(C)(=O)CC5)o4)cc23)ccc1OCc1cccc(F)c1`, below 100 nM.

On to `CP1(=O)CCN(Cc2ccc(-c3ccc4ncnc(Nc5ccc(OCc6ccccn6)c(Cl)c5)c4c3)o2)CC1`, for which the concentration for half-maximal inhibition (IC50) is below 100 nM.

Compound `CP(C)(=O)CCNCc1ccc(-c2ccc3ncnc(Nc4ccc5c(cnn5Cc5cccc(F)c5)c4)c3c2)o1` returned an IC50 below 100 nM. For `CP1(=O)CCN(Cc2ccc(-c3ccc4ncnc(Nc5ccc(OCc6cccc(F)c6)c(Cl)c5)c4c3)o2)CC1` the value was below 100 nM; for `Cc1cccc(COc2ccc(Nc3ncnc4ccc(-c5ccc(CN6CCP(C)(=O)CC6)o5)cc34)cc2Cl)[n+]1[O-]`, below 100 nM. Next, `CP1(=O)CCN(C/C=C/c2ccc3ncnc(Nc4ccc(OCc5cccc(F)c5)c(Cl)c4)c3c2)CC1`: below 100 nM; `CP(C)(=O)CCNCc1ccc(-c2ccc3ncnc(Nc4ccc(OCc5cccc(F)c5)c(Cl)c4)c3c2)o1`: below 100 nM; `Cc1ccc(Oc2ccc(Nc3ncnc4ccc(-c5ccc(CN6CCP(C)(=O)CC6)o5)cc34)cc2C)cn1`: below 100 nM.

With `CP1(=O)CCN(Cc2ccc(-c3ccc4ncnc(Nc5ccc(OCc6cccc(F)c6)c(Br)c5)c4c3)o2)CC1`, the IC50 is below 100 nM. Next, `CP1(=O)CCN(CCCc2ccc3ncnc(Nc4ccc(OCc5cccc(F)c5)c(Cl)c4)c3c2)CC1`: below 100 nM; `CCOP1(=O)CCN(Cc2ccc(-c3ccc4ncnc(Nc5ccc(OCc6cccc(F)c6)c(Cl)c5)c4c3)o2)CC1`: below 100 nM.

`CP1(=O)CCN(Cc2ccc(-c3ccc4ncnc(Nc5ccc(OCc6cccc[n+]6[O-])c(Cl)c5)c4c3)o2)CC1` had an IC50 below 100 nM.
